Test results taken from patent publication US20230181601A1, “TREATMENT OF NON-ALCOHOLIC STEATOHEPATITIS (NASH)” (DURECT CORPORATION, priority 2020, published 2023).

Assays:
[1] = Phase 1b study in NASH patients: pharmacokinetics; format: in vivo, human; conditions: for CL/F / AUC(0-t) / Cmax / Tmax / half-life: NASH patients, mean (standard deviation); for AUC(0-t) / Cmax / Tmax / half-life: both sexes, human, plasma
Excerpt: A total of 63 patients completed the study with 21 patients per dose group (completion of MRI-PDFF measurement). […] Subjects provided written informed consent to participate in the study • 2. Males or females subjects 18 years or older, at the time of signing informed consent • 3. BMI 20-45 kg/m^2 • 4. […] Value of Fibroscan® ≥7 kPa • OR • b. MRE≥2.75 kPa • *Clinical diagnosis of NASH was defined in this clinical trial as the existence of one or more of the following risk factors for NASH, namely: • a. Type 2 diabetes or elevated fasting blood sugar • b. Abdominal obesity • c. Elevated lipid levels, especially elevated levels of serum triglycerides • d. Hypertension, or • e. Low levels of HDL cholesterol • 5. For serum transaminases, ALT concentration for all patients at the time of screening was >1 and <5 times upper limit of normal (ULN) of the central lab in the absence of another cause of liver disease. If a patient had lab records in the past 6 months, ALT concentrations were <20 U/L female and <30 U/L male. AST concentration for all patients at the time of screening was <5x ULN • 6. […] Platelet counts ≥120,000/mm^3 • 8. Female subjects were eligible for the study if they met the following criteria: • Are not pregnant or nursing • Women of child-bearing potential (defined as females who are not surgically sterile or who are not over the age of 52 and amenorrheic for at least 12 months) must utilize appropriate birth control throughout the study duration. Acceptable methods that may be used are abstinence, birth control pills (“The Pill”) or patch, diaphragm, IUD (coil), vaginal ring, condom, surgical sterilization or progestin implant or injection, or sexual activity limited to a sterile (e.g., vasectomized) male partner • 9. Male participants agreed to consistently and correctly use a condom in combination with one of the above methods of birth control from enrolment to 30 days after the last dose of study medication • 10. Participants were able to comply with dosing and able to complete the study schedule of assessments
The pharmacokinetics of administered 25HC3S was determined.

[2] = system: patients with Non-Alcoholic Steatohepatitis (NASH); assay: Phase 1b study in NASH patients: safety; format: in vivo, human; conditions: all three doses (50 mg, 150 mg, 600 mg daily), 4 weeks oral
Excerpt: A total of 63 patients completed the study with 21 patients per dose group (completion of MRI-PDFF measurement). […] Subjects provided written informed consent to participate in the study • 2. Males or females subjects 18 years or older, at the time of signing informed consent • 3. BMI 20-45 kg/m^2 • 4. […] Value of Fibroscan® ≥7 kPa • OR • b. MRE≥2.75 kPa • *Clinical diagnosis of NASH was defined in this clinical trial as the existence of one or more of the following risk factors for NASH, namely: • a. Type 2 diabetes or elevated fasting blood sugar • b. Abdominal obesity • c. Elevated lipid levels, especially elevated levels of serum triglycerides • d. Hypertension, or • e. Low levels of HDL cholesterol • 5. For serum transaminases, ALT concentration for all patients at the time of screening was >1 and <5 times upper limit of normal (ULN) of the central lab in the absence of another cause of liver disease. If a patient had lab records in the past 6 months, ALT concentrations were <20 U/L female and <30 U/L male. AST concentration for all patients at the time of screening was <5x ULN • 6. […] Platelet counts ≥120,000/mm^3 • 8. […]

[3] = Single oral dose safety and pharmacokinetic study in NASH and healthy subjects; format: in vivo, human; conditions: for Cmax: read-out: Cmax
Experimental: The present Example was a randomized, dose ranging, single dose safety and pharmacokinetic study of 25HC3S administered to subjects with NASH and control healthy subjects. […] For each cohort, 10 subjects with NASH were enrolled which were further classified into cirrhotic and non-cirrhotic. Each subject received only one dose of study treatment. The second cohort was dosed after a review of safety and tolerability data from Cohort 1.

[4] = Metabolite profiling of plasma, urine and feces after intravenous dose; format: in vivo, male Sprague Dawley rats; conditions: intravenous 10 mg/kg
Experimental: Nine male Sprague Dawley rats (Group 1) were designated for the pharmacokinetic phase, 3 male Sprague Dawley rats (Group 2) for the excretion mass balance phase, and 7 male Sprague Dawley rats (Group 3) and 9 male Long Evans rats (Group 4) for the tissue distribution phase. All animals received a single intravenous dose of [^14C]-25HC3S at 10 mg/kg and a target radioactivity of 225 μCi/kg. Blood samples were collected from all Group 1 animals at approximately 0.083, 0.25, 0.5, 1, 2, 4, 8, 12, 24, 48, and 72 hours post-dose. Urine and feces were collected from all Group 2 animals periodically through 168 hours post-dose. […] Following blood collection, animals were euthanized by CO2 inhalation and carcasses frozen in a dry ice/hexane bath for processing by quantitative whole body autoradiography. Whole blood, plasma, urine, feces, cage rinse, and cage wash were analyzed for total radioactivity by liquid scintillation counting.

[5] = system: NASH patients; conditions: 50 mg vs 200 mg oral; cited from earlier work

In the case of `C[C@H](CCCC(C)(C)O)[C@H]1CC[C@H]2[C@@H]3CC=C4C[C@@H](OS(=O)(=O)O)CC[C@]4(C)[C@H]3CC[C@]12C` [25HC3S, 5-cholesten-3,25-diol, 3-sulfate], the CL/F ([1]; 50 mg QD oral) is reported as 150.6 (51.5) L/h, the CL/F ([1]; 150 mg QD oral) is reported as 176.6 (80.5) L/h and the CL/F ([1]; 300 mg BID oral) is reported as 166.2 (60.4) L/h. For the same molecule, the AUC(0-t) ([1]; 50 mg QD oral) was 340 ng·h/mL, the Cmax ([1]; 50 mg QD oral) was 79.1 ng/mL and the Tmax ([1]; 50 mg QD oral) was 2.4 h. For the same molecule, the half-life ([1]; 50 mg QD oral) was 2.7 h, the AUC(0-t) ([1]; 150 mg QD oral) was 1040 ng·h/mL and the Cmax ([1]; 150 mg QD oral) was 274 ng/mL. The Tmax ([1]; 150 mg QD oral) was 2 h, the half-life ([1]; 150 mg QD oral) was 2.7 h and the AUC(0-t) ([1]; 300 mg BID oral) was 2140 ng·h/mL. It also gave a Cmax ([1]; 300 mg BID oral) of 430 ng/mL, a Tmax ([1]; 300 mg BID oral) of 2.3 h and a half-life ([1]; 300 mg BID oral) of 2.4 h. The “PK parameters after repeat dosing” value ([1]; repeat vs single dose) was “comparable to those after a single dose and were dose dependent”, the “tolerability, drug related serious adverse events” value [2] was “well tolerated at all three doses with no drug related serious adverse events observed” and the “difference in pharmacokinetics between healthy subjects and NASH patients” value ([3]; 50 mg and 200 mg single oral dose) was “no clear difference in pharmacokinetics”. For the same molecule, the CL/F ([3]; 200 mg single oral dose, Healthy, Mean) was 171.25 ± 28.60 L/h, the “time post-dose up to which plasma levels were detectable” value ([3]; Cohort 1 (50 mg) healthy subjects) was “up to 12 hours” and the “AUC0-inf, higher in NASH than healthy subjects” value ([3]; Cohort 2 (200 mg)) was “approximately 20%”. The “geometric mean AUC0-12 and AUC0-last, higher in NASH than healthy subjects” value ([3]; Cohort 2 (200 mg)) was “approximately 30%”, the “time post-dose up to which plasma levels were detectable” value ([3]; Cohort 2 (200 mg) healthy subjects) was “up to 16 hours” and the “increase of geometric mean Cmax in NASH over healthy subjects” value ([3]; Cohorts 1 and 2) was 18-24%. The “exposure (AUC parameters), potential increasing trends in NASH subjects” value ([3]; NASH vs healthy) was “up to 31%”, the half-life ([3]; human, plasma, oral, across both healthy and NASH subject groups, 50 mg and 200 mg, read-out: T1/2, range of mean values) was 1.67 to 2.51 h and the Cmax ([3]; human, plasma, 50 mg single oral dose, Healthy, Mean) was 94 ± 27.3 ng/mL. The Cmax ([3]; human, plasma, 200 mg single oral dose, Healthy, Mean) was 260 ± 54.8 ng/mL, the “% of dose in feces” value ([4]; pools 0 to 48 hours postdose) was 2 % of dose and the “share of the exposure (AUC) to 25HC3S related radioactivity in plasma” value ([4]; up to 1 hour postdose) was “approximately 54%”. For the same molecule, the “dose dependence of biological responses” value [5] was “no dose-dependent changes of biological responses”.
